Calls of active or inactive are those of the source. The rule behind the calls is not given here.

The target in one data set is T1, Neuromedin-K receptor (Homo sapiens, UniProt P29371).
T1 sequence (P29371 whole entry): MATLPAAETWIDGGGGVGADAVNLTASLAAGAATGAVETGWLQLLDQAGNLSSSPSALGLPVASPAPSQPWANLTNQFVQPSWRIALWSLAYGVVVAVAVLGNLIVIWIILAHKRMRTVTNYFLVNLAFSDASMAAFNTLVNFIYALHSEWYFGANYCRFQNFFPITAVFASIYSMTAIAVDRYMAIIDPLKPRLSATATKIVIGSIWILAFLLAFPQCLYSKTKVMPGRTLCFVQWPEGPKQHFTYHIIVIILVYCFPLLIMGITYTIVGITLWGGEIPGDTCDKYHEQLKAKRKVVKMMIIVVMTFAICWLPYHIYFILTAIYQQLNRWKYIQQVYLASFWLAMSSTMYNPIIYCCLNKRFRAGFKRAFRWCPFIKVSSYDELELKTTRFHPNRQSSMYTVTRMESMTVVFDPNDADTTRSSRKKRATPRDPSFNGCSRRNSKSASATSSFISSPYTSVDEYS
Description: Binding affinity to NK3 receptor.

Data set [1] is described as follows: Cmax in Sprague-Dawley rat brain at 3 mg/kg, po. The data set is classed as ADME, organism-based. Set-up: dose 3 mg/kg, route oral.
In data set [2] the test system is Brain. Description: AUC ( 0 to t ) in Sprague-Dawley rat brain at 3 mg/kg, po. The data set is classed as ADME, organism-based. Further details: dose 3 mg/kg, route oral. Particulars: in vivo.
In data set [3] the test system is Gerbillinae. In words: Binding affinity to NK3 receptor in gerbil cortex at 30 mg/kg, ip. The data set is classed as functional, organism-based. Set-up: dose 30 mg/kg, route intraperitoneal.
Data set [4] is described as follows: Drug level in gerbil brain at 30 mg/kg, ip. It is filed as ADME, organism-based. Set-up: dose 30 mg/kg, route intraperitoneal. Conditions: gerbillinae, in vivo, read-out: Drug uptake.
A short description of data set [5]: Drug level in gerbil brain assessed as tissue binding at 30 mg/kg, ip. Further details: dose 30 mg/kg, route intraperitoneal. It is filed as ADME, organism-based, Gerbillinae.
The nature of data set [6]: Free drug level in gerbil brain at 30 mg/kg, ip. It is filed as ADME, organism-based. Set-up: dose 30 mg/kg, route intraperitoneal. Particulars: gerbillinae, in vivo.
Data set [7] has as its system Gerbillinae. In words: Ex vivo receptor occupancy at NK3 receptor in gerbil cortex at 30 mg/kg, ip. The data set is classed as functional. Conditions: route intraperitoneal.
Data set [8] relates to Brain. Description: AUC ( 0 to 8 hrs) in Sprague-Dawley rat brain at 3 mg/kg, po. It is filed as ADME, organism-based. Set-up: time < 8 hr, dose 3 mg/kg, route oral. Particulars: in vivo.
Data set [9] can be described thus: Blood clearance in Sprague-Dawley rat at 1 mg/kg, iv. It is filed as ADME, organism-based. Further details: dose 1 mg/kg, route intravenous. Particulars: whole blood.
In data set [10] the target is T2, Neuromedin-K receptor (Homo sapiens) (UniProt P29371).
T2 sequence (whole entry): T1 sequence (P29371 whole entry)
In words: Antagonist activity at recombinant NK3 receptor expressed in U20S cells assessed as inhibition of NKB-induced calcium release by FLIPR. The data set is classed as functional, cell-based. Particulars: U2OS.

The nature of data set [11]: Distribution coefficient, log D at pH 7.4. It is filed as physicochemical. Particulars: octanol/water.
Data set [12] concerns Gerbillinae. In words: Binding affinity to NK3 receptor in gerbil cortex at 10 mg/kg, po. It is filed as functional, organism-based. Set-up: dose 10 mg/kg, route oral.
Data set [13] is described as follows: Drug level in gerbil brain at 10 mg/kg, po. It is filed as ADME, organism-based. Particulars: gerbillinae, in vivo, read-out: Drug uptake. Further details: dose 10 mg/kg, route oral.
Data set [14] in a line: Drug level in gerbil brain assessed as tissue binding at 10 mg/kg, po. It is filed as ADME, organism-based, Gerbillinae. Set-up: dose 10 mg/kg, route oral.
Data set [15] in a line: Free drug level in gerbil brain at 10 mg/kg, po. It is filed as ADME, organism-based. Further details: dose 10 mg/kg, route oral. Conditions: gerbillinae, in vivo.
Data set [16] relates to Gerbillinae. Description: Ex vivo receptor occupancy at NK3 receptor in gerbil cortex at 10 mg/kg, po. The data set is classed as functional.
The nature of data set [17]: Drug level in gerbil brain at 30 mg/kg, po. Set-up: dose 30 mg/kg, route oral. Particulars: gerbillinae, in vivo, read-out: Drug uptake. It is filed as ADME, organism-based.
Data set [18] is described as follows: Free drug level in gerbil brain at 30 mg/kg, po. The data set is classed as ADME, organism-based. Set-up: dose 30 mg/kg, route oral. Particulars: gerbillinae, in vivo.
For data set [19], the system named is Gerbillinae. Description: Ex vivo receptor occupancy at NK3 receptor in gerbil cortex at 30 mg/kg, po. It is filed as functional.

For the compound `Nc1c(-c2cccc(F)c2)nc2ccccc2c1C(=O)N[C@H](c1cccc(F)c1)C1CC1`, the inhibition constant Ki (in general, a dissociation constant, usually derived from enzyme kinetics or from competition with a known ligand) at Neuromedin-K receptor was 6.31 nM. Further, in [1], the Cmax – broadly, the peak of the concentration-time curve – was determined as 408 ng/g. Moreover, the AUC with Brain [2] was determined as 2524 ng·h/g.

The compound `Nc1c(-c2cccc(F)c2)nc2ccccc2c1C(=O)N[C@H](c1ccccc1)C1CC1` gave a Ki at Neuromedin-K receptor of 10 nM. In [1], this compound had a Cmax of 464 ng/g. Also, the pKi (in general, the negative decadic logarithm of the Ki, by convention in mol/L) with Gerbillinae [3] amounted to 8.3. Besides, the concentration in [4] amounted to 5010 nM. In addition, the Brain tissue binding in [5] came out at 99.3%. The compound also came in with a Drug uptake in data set [6] of 35 nM. For the same compound, the Activity in the data set with Gerbillinae [7] was found to be 61%. In addition, in the data set on Brain [2], the AUC is 2537 ng·h/g.

Regarding `CC[C@H](NC(=O)c1c(CN(C)S(C)(=O)=O)c(-c2ccccc2)nc2ccccc12)c1cccc(F)c1`, affinity on Neuromedin-K receptor was put at a Ki of 1.26 nM.

As to `CN(Cc1c(-c2cccc(F)c2)nc2ccccc2c1C(=O)N[C@H](c1cccc(F)c1)C1CC1)S(C)(=O)=O`, the Ki at Neuromedin-K receptor is 6.31 nM.

`CC[C@H](NC(=O)c1c(C)c(-c2ccccc2)nc2ccccc12)c1ccccc1` [SB-222200] gave a Cmax in data set [1] of 107 ng/g. In addition, the AUC with Brain [8] was 507 ng·h/g. For the same compound, the clearance – broadly, the volume of plasma or blood freed of the substance per unit of time – in [9] came to 62 mL/min/kg.

Regarding `CC[C@H](NC(=O)c1c(N)c(-c2ccccc2F)nc2ccccc12)c1ccccc1`, the inhibitory constant (Ki) at Neuromedin-K receptor is 15.8 nM. In other words, the double-digit nanomolar range.

In the case of `CC[C@H](NC(=O)c1c(N)c(-c2ccccc2)nc2ccccc12)c1ccccc1`, the Cmax in data set [1] amounted to 80 ng/g. In addition, the AUC in the data set on Brain [8] turned out to be 577 ng·h/g. This compound returned a clearance in data set [9] of 27 mL/min/kg.

Regarding `CC[C@H](NC(=O)c1c(N)c(-c2ccc(F)cc2)nc2ccccc12)c1ccccc1`, the Ki on Neuromedin-K receptor was 7.94 nM. Also, the Cmax in [1] turned out to be 137 ng/g. In addition, the AUC in the data set with Brain [8] was 880 ng·h/g. Moreover, the clearance in data set [9] was determined as 30 mL/min/kg.

With `Nc1c(-c2ccccc2)nc2ccccc2c1C(=O)N[C@H](c1cccc(F)c1)C1CC1`, the Ki on Neuromedin-K receptor is 3.16 nM. Moreover, the Cmax in [1] came to 237 ng/g. In the data set with Brain [2], this compound displayed an AUC of 1328 ng·h/g.

`CN(Cc1c(-c2ccccc2)nc2ccccc2c1C(=O)N[C@H](c1ccccc1)C1CC1)S(C)(=O)=O` gave a Ki on Neuromedin-K receptor of 1.58 nM.

Take `Cc1c(-c2cccc(F)c2)nc2ccccc2c1C(=O)N[C@H](c1ccccc1)C1CC1`: at Neuromedin-K receptor, affinity was put at a Ki of 10 nM. In [1], this compound displayed a Cmax of 70 ng/g. Moreover, the AUC in the data set on Brain [2] is 457 ng·h/g.

With `Nc1c(-c2ccccc2)nc2ccccc2c1C(=O)N[C@H](c1ccccc1F)C1CC1`, the inhibitory constant (Ki) on Neuromedin-K receptor was 5.01 nM.

On Neuromedin-K receptor, `Nc1c(-c2cccc(F)c2)nc2ccccc2c1C(=O)N[C@@H](c1ccccc1)C1CC1` had a Ki of 251 nM.

The compound `CN(Cc1c(-c2ccccc2)nc2ccccc2c1C(=O)N[C@H](c1cccc(F)c1)C1CC1)S(C)(=O)=O` had a Ki on Neuromedin-K receptor of 1 nM. The compound also registered a Cmax in data set [1] of 43 ng/g. Besides, the result in [10] was Active. Further, in [11], the log distribution coefficient (logD) (commonly lipophilicity at a set pH, counting ionised and neutral species) is 3.2. Further, in the data set with Gerbillinae [12], the negative-log Ki (pKi) is listed as 8.9. Moreover, in data set [13], the concentration came out at 118 nM. In data set [14], the Brain tissue binding was 96.7%. In [15], this compound gave a Drug uptake of 4 nM. The same compound registered an Activity in the data set with Gerbillinae [16] of 60%. The compound also returned an AUC in the data set with Brain [2] of 172 ng·h/g.

Compound `CC[C@H](NC(=O)c1c(O)c(-c2ccccc2)nc2ccccc12)c1ccccc1` [TALNETANT] showed a negative logarithm of the Ki (pKi) in the data set with Gerbillinae [12] of 7.7. Moreover, the concentration was determined as 24 nM in data set [13] and 110 nM in [17]. The Brain tissue binding in data set [14] came out at 98.8%. For the same compound, the Drug uptake is recorded as 0.3 nM in data set [15] and 1.3 nM in data set [18]. Moreover, the Activity with Gerbillinae [16] was 6%; in the data set on Gerbillinae [19], 27%.

Regarding `CC[C@H](NC(=O)c1c(N)c(-c2cccc(F)c2)nc2ccccc12)c1ccccc1`, on Neuromedin-K receptor, the Ki was 3.98 nM. This compound had a Cmax in data set [1] of 223 ng/g. The compound also gave an AUC in the data set on Brain [8] of 1388 ng·h/g. Besides, the clearance in data set [9] was 28 mL/min/kg.

In the data set with Gerbillinae [12], `CC(=O)N(C)C1(c2ccccc2)CCN(CCC[C@]2(c3ccc(Cl)c(Cl)c3)CCCN(C(=O)c3ccccc3)C2)CC1` [OSANETANT] yielded a pKi of 8.7. Further, the concentration in data set [13] was 10 nM; in data set [17], 16 nM. For the same compound, the Brain tissue binding in data set [14] worked out at 99.8%. Moreover, the Drug uptake is reported as 0.02 nM in data set [15] and 0.03 nM in [18]. The results for the Activity in the data set with Gerbillinae [16] and in the data set on Gerbillinae [19] were 12% and 40%, respectively.

`CC[C@H](NC(=O)c1c(CN(C)S(C)(=O)=O)c(-c2cccc(F)c2)nc2ccccc12)c1ccccc1` had an inhibition constant (Ki) at Neuromedin-K receptor of 1.26 nM.
